In PubChem BioAssay (NCI):
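These data come from cells grown in 96-well plates and exposed to compound for 48 hours at five concentrations. Abbreviation: GI50, concentration required for 50% inhibition of growth. TGI denotes the concentration required for complete inhibition of growth.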

Key:
Assay in all cases: inhibition of tumour cell growth, NCI panel, 48 h
IGROV1 ovarian = system: IGROV1 ovarian
SK-MEL-2 melanoma = system: SK-MEL-2 melanoma
M14 melanoma = system: M14 melanoma
HCT-116 colon = system: HCT-116 colon
TK-10 renal = system: TK-10 renal
OVCAR-4 ovarian = system: OVCAR-4 ovarian
SW-620 colon = system: SW-620 colon
SNB-75 CNS = system: SNB-75 CNS
OVCAR-5 ovarian = system: OVCAR-5 ovarian
CCRF-CEM leukemia = system: CCRF-CEM leukemia

Row | SMILES | TGI (IGROV1 ovarian) [µM] | TGI (SK-MEL-2 melanoma) [µM] | TGI (M14 melanoma) [µM] | TGI (HCT-116 colon) [µM] | TGI (TK-10 renal) [µM] | TGI (OVCAR-4 ovarian) [µM] | TGI (SW-620 colon) [µM] | TGI (SNB-75 CNS) [µM] | TGI (OVCAR-5 ovarian) [µM] | TGI (CCRF-CEM leukemia) [µM] | GI50 (IGROV1 ovarian) [µM] | GI50 (SK-MEL-2 melanoma) [µM] | GI50 (M14 melanoma) [µM] | GI50 (HCT-116 colon) [µM] | GI50 (TK-10 renal) [µM] | GI50 (OVCAR-4 ovarian) [µM] | GI50 (SW-620 colon) [µM] | GI50 (SNB-75 CNS) [µM] | GI50 (OVCAR-5 ovarian) [µM] | GI50 (CCRF-CEM leukemia) [µM]
1 | [O-][N+]1(CC[N+]2([O-])CCCCC2)CCCCC1 | > 100 | > 100 | > 100 | > 100 | > 100 | > 100 | > 100 | > 100 | > 100 | > 100 | – | – | – | – | – | – | – | – | – | –
2 | CN(C)c1ccc(/C=C2\N=C(c3ccccc3)N(c3cc(C(F)(F)F)ccc3Cl)C2=O)cc1 | > 100 | > 100 | > 100 | > 100 | > 100 | > 100 | > 100 | > 100 | > 100 | > 100 | > 100 | > 100 | > 100 | > 100 | > 100 | > 69 | > 100 | > 100 | > 100 | > 100
3 | COC(=O)C12CC(NC(=O)c3csc([C@@H](C[C@H](C(C)C)N(C)C(=O)[C@@H](NC(=O)[C@H]4CCCCN4C)C4CC4)OC(C)=O)n3)(C1)C2 | > 16.7 | > 16.7 | > 5.28 | > 16.7 | > 16.7 | > 16.7 | > 16.7 | > 16.7 | > 16.7 | > 8.79 | 0.0126 | 0.033 | 0.00988 | 0.0228 | 1.15 | 0.427 | 0.0114 | 0.00548 | 0.135 | 0.00613
4 | CN(C)c1nc(=NCc2ccco2)ss1 | > 100 | > 64.8 | > 53.8 | 35 | > 100 | 51.7 | 61.9 | 53.9 | > 55.6 | 33.8 | – | – | – | – | – | – | – | – | – | –
5 | CSc1ncc(Br)c(Sc2nc(N)nc3nc[nH]c23)n1 | 44.2 | 7.33 | > 100 | > 100 | 15.8 | > 100 | 24 | 81.4 | > 100 | 9.3 | 12.9 | 1.12 | 2.78 | 4.2 | 2.45 | 5.08 | 4.46 | 2.82 | 4.98 | 2.38
6 | CN1CCN(CCOc2ccc(-c3cnc4c(-c5cccc(F)c5)cnn4c3)cc2)CC1 | 3.8 | 4.27 | 4.34 | 3.51 | 3.77 | 5.75 | 3.4 | 3.53 | 3.55 | 5.23 | 1.82 | 1.98 | 1.95 | 1.79 | 2.07 | 1.93 | 1.81 | 1.39 | 1.79 | 2.11
7 | COC(=O)C(CCC(=O)CCl)N1C(=O)c2ccccc2C1=O (stereo not given) | 26.9 | 21.9 | 14.8 | 14.5 | 21.5 | 27.4 | 15.6 | 29.3 | 28.4 | 6.34 | – | – | – | – | – | – | – | – | – | –
8 | O=C(Nc1ccc(-n2ccc3c(NC(=O)c4ccccc4)ncnc32)cc1)c1cccc(C(F)(F)F)c1 | 27.2 | 13.5 | 17.6 | 15.9 | 27.2 | 31.2 | 18.8 | 22.3 | 31.7 | 25.2 | 5.63 | 1.47 | 2.85 | 0.139 | 8.57 | 4.31 | 1.05 | 3.58 | 6.18 | 0.346
9 | CC(C)c1nc(N(C)S(C)(=O)=O)nc(-c2ccc(F)cc2)c1/C=C/[C@@H](O)C[C@@H](O)CC(=O)O | > 100 | > 100 | > 100 | > 100 | > 100 | > 100 | > 100 | > 77.5 | > 100 | > 100 | > 100 | 26.2 | > 100 | 59.5 | > 100 | > 100 | > 100 | 18.5 | > 100 | > 100
10 | CCCn1cnc2c(SCC(=O)O)nc(N)nc21 | > 100 | > 100 | > 100 | > 100 | > 100 | > 100 | > 100 | > 100 | > 100 | > 100 | – | – | – | – | – | – | – | – | – | –
11 | CCN(Cc1cc(F)ccc1F)c1ccc(CO)c(Cl)c1 | 0.279 | 19.5 | 32.5 | 11.7 | 0.199 | 1.15 | 20.5 | 35.6 | 0.228 | 91.5 | 0.0527 | 2.72 | 15.5 | 0.0553 | 0.0332 | 0.129 | 0.554 | 10.4 | 0.0502 | 22.5
12 | Cc1cc(Cl)ccc1OCC(=O)Nc1nc(N)nc(N)n1 | > 100 | > 100 | > 100 | > 100 | > 100 | > 100 | > 100 | > 100 | > 100 | > 100 | – | – | – | – | – | – | – | – | – | –
13 | C[Si](C)(c1ccc(C(=O)O)cc1)c1ccc(C(=O)O)cc1 | > 100 | > 100 | > 100 | > 100 | > 100 | > 100 | > 100 | > 100 | > 100 | > 100 | – | – | – | – | – | – | – | – | – | –
14 | COC(=O)c1cc2c(cc1Cl)SC1=NN(C)S(=O)N1S2(=O)=O (stereo not given) | > 100 | > 100 | > 100 | > 100 | > 100 | > 100 | > 100 | > 100 | > 100 | > 100 | > 100 | > 100 | > 100 | > 100 | > 100 | > 100 | > 100 | 85.9 | > 100 | > 100
15 | CNc1ccc2ncccc2c1[N+](=O)[O-] | > 100 | > 100 | > 100 | > 100 | > 100 | > 100 | > 100 | > 100 | > 100 | > 100 | – | – | – | – | – | – | – | – | – | –
